In ChEMBL document CHEMBL3826917, “Anti-inflammatory properties of pterocarpanquinone LQB-118 in mice” (Bioorg Med Chem, 2016):
Active and inactive are the calls of the source. No cut-off for these calls is given here.

Assays:
[1] = test system: Mus musculus; test: Antiinflammatory activity in LPS-induced C57BL/6 mouse model of lung inflammation assessed as reduction in TNF-alpha release in bronchoalveolar lavage fluid at 10 mg/kg, ip administered 1 hr prior to LPS-challenge measured after 3 hrs by ELISA; assay type: functional, organism-based
[2] = test system: Mus musculus; test: Antiinflammatory activity in LPS-induced C57BL/6 mouse model of lung inflammation assessed as reduction in keratinocyte-derived chemokine release in bronchoalveolar lavage fluid at 10 mg/kg, ip administered 1 hr prior to LPS-challenge measured after 3 hrs by ELISA; assay type: functional, organism-based
[3] = test system: Mus musculus; test: Antiinflammatory activity in LPS-induced C57BL/6 mouse model of lung inflammation assessed as reduction in NF-kappaB activation at 10 mg/kg, ip administered 1 hr prior to LPS-challenge measured after 3 hrs by electrophoretic mobility shift assay; assay type: functional, organism-based
[4] = test system: PBMC; test: Inhibition of LPS-induced TNF-alpha production in human PBMC at 1 to 100 uM administered prior to LPS-challenge measured after 2 hrs by ELISA; assay type: functional, cell-based
[5] = test system: Mus musculus; test: Toxicity in LPS-induced C57BL/6 mouse model of lung inflammation assessed as change in liver weight at 10 mg/kg, ip administered 1 hr prior to LPS-challenge measured after 3 hrs relative to control; assay type: organism-based; conditions: in vivo
[6] = test system: Mus musculus; test: Toxicity in LPS-induced C57BL/6 mouse model of lung inflammation assessed as change in spleen weight at 10 mg/kg, ip administered 1 hr prior to LPS-challenge measured after 3 hrs relative to control; assay type: organism-based; conditions: in vivo
[7] = test system: Mus musculus; test: (§1) Antiinflammatory activity in LPS-induced C57BL/6 mouse model of lung inflammation assessed as decrease in neutrophil infiltration in bronchoalveolar lavage fluid at 10 mg/kg, ip administered 1 hr prior to LPS-challenge measured after 3 hrs by Diff-Quik staining-based coulter particle counter method; assay type: functional, organism-based
[8] = test system: Mus musculus; test: Toxicity in LPS-induced C57BL/6 mouse model of lung inflammation assessed as change in liver weight at 1 to 100 mg/kg, ip administered 1 hr prior to LPS-challenge measured after 3 hrs relative to control; assay type: organism-based; conditions: in vivo
[9] = test system: Mus musculus; test: Toxicity in LPS-induced C57BL/6 mouse model of lung inflammation assessed as change in spleen weight at 1 to 100 mg/kg, ip administered 1 hr prior to LPS-challenge measured after 3 hrs relative to control; assay type: organism-based; conditions: in vivo
[10] = test system: Mus musculus; test: as §1, with “fluid at 1 to 10 mg/kg,” for “fluid at 10 mg/kg,”; assay type: functional, organism-based
[11] = test system: Mus musculus; test: as §1, with “100” for “10”, “method relative to vehicle-treated control” for “method”; assay type: functional; conditions: C57BL/6, ip

Compound	Activity [1]	Activity [2]	Activity [3]	inhibition [4]	Activity [5]	Activity [6]	Activity [7]	Activity [8]	Activity [9]	Activity [10]	inhibition in vivo at 100 mg/kg [11] [%]
CC(=O)Oc1ccccc1C(=O)O	Active	Active	Active								
CC(C)=CCC1=C(O)C(=O)c2ccccc2C1=O				inactive							
C[C@@H]1C[C@H]2[C@@H]3CCC4=CC(=O)C=C[C@]4(C)[C@@]3(F)[C@@H](O)C[C@]2(C)[C@@]1(O)C(=O)CO [DEXAMETHASONE]	Active	Active			Toxic	Toxic	Active				
O=C1C2=C(C(=O)c3ccccc31)C1Oc3ccccc3C1CO2 (racemic)	Active	inactive	Active					Non-toxic	Non-toxic	Active	90
